Structures can show the parent of a compound that is named as a salt.
How the values were obtained:
[1] = tested on: mice tail suspension test; assay: Mice tail suspension test; format: in vivo, ICR mice; settings: final 4 min of 6 min, 5 mg/kg intragastric once per day 10 d
Method: (§1) Male ICR mice having a body weight of 18-22 g. The animals were active on a schedule of normal illumination for 12 h and in the dark for 12 h. Environmental temperature and relative humidity were relatively kept for 22±1° C. and 55±5%.
(§2) There were 7 groups of laboratory mice, 10 pieces each group, set as a control group (normal saline), a positive control group (fluoxetine hydrochloride capsule, 5 mg/kg), 5 MAGLZ-II series of administration treatment groups: MAGLZ-II-06, MAGLZ-II-07, MAGLZ-II-11, MAGLZ-II-17 and MAGLZ-II-18, respectively, with an administration concentration of 5 mg/kg.
(§3) All medicaments were used once per day via intragastric administration with a dose of 20 mL/kg (body weight), lasting for 10 d. 1 h later after the final administration, the detection of animal behaviors was started.
The tail suspension test (TST) was performed by the method established by Porsolt, et al. (Porsolt R D, Le Pichon M, Jalfre M. Depression: a new animal model sensitive to antidepressant treatments[J]. Nature, 1977, 266(5604):730-732). Mice were respectively suspended on the tail portions with tail suspension clamps at a distance of 10 mm away from the tail portion of the box (250 mm×250 mm×300 mm) and a distance of 5 cm where the head of each mouse was away from the bottom portion. Noise was tested in a dark room having minimum background, and each mouse was suspended for 6 min, and an immobility time was recorded at intervals in the final 4 min. Judgment standard: the mice stopped struggling and kept still completely.
(§4) All data are shown by x̅±SD, and the comparison among groups is analyzed by one-way variance.

[2] = tested on: mice forced swimming test; assay: Mice forced swimming test; format: in vivo, ICR mice; settings: for Accumulated immobility time: forced swimming, 6 min, 5 mg/kg intragastric once per day 10 d, 1 h after final administration
Method: as §1, §2, §3
Mice forced swimming test was performed according to the method established by Porsolt (Porsolt R D. Behavioural despair in mice: A primary screening test for antidepressants[J]. Arch. Int. Pharmacolodyn. 1977, 229). […] Each mouse was judged as still when stopped struggling, kept suspension in water and only made necessary movement to keep the head above the water.
as §4

[3] = tested on: reserpine-induced mice depression; assay: Reserpine-induced mice depression; format: in vivo, ICR mouse; parameters: Awakening / Finger contact / Head touch / Fear / Autonomic activity / Eyelid closure / Upright: scale not given here; settings: for Eyelid closure: 2 h after reserpine 4 mg/kg
Method: • Species: ICR mouse • Microbiological level: SPF • Quantity and sex of the animals purchased: male: 75; female: 75 • Quantity and sex of the animals used: male: 75; female: 75 • Body weight: 13-18 g when accepted
Group design: there were 50 pieces for each batch of animals and 3 batches in total; each batch of animals were randomly divided into 5 groups; low, middle and high-dose groups of the samples for test, blank control group and model group; a sample for test was tested per batch.
3.1 Animals were administrated via subcutaneous injection per day with doses of 4, 8 and 16 mg/kg for 6 d in total. 2 h later after the final administration, each animal was subcutaneously injected with 4 mg/kg reserpine except the blank control group; afterwards, indicators, such as, awakening, finger contact, fear, head touch, autonomic activity, upright and eyelid closure were determined 2 h later.
Data statistics and analysis were completed via a computer by SPSS 17.0 software and office 2016, and data statistics was inspected by Kruskal-Wallis. If the Kruskal-Wallis inspection result is significant ((P<0.05), multiple comparison inspection is further performed by a Mann-Whitney U nonparametric test method.

[4] = target: T1, recombinant human protein MAGL (Homo sapiens, UniProt Q99685); assay: MAGL enzyme analysis (Cayman MAGL inhibitor screening kit); format: biochemical; settings: 4-nitrophenylacetic acid substrate, absorbance 410 nm, read-out: MAGLXIC50
T1 construct: purchased Cayman
T1 sequence (Q99685 1-303): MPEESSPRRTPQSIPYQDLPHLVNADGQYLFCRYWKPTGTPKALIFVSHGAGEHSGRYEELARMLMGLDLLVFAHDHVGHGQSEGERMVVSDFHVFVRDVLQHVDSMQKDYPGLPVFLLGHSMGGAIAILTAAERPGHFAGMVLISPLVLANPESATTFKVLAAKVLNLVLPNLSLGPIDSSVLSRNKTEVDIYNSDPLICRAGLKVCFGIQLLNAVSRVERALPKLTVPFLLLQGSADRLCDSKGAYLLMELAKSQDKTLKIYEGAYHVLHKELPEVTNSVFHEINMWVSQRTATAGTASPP
Method: 150 µL 1Xassay buffer, 10 µL recombinant human protein MAGL and 10 µL different concentrations of MAGL inhibitors (six points within 1 nM to 1000 nM) were added to per well of a 96-well plate. JZL195 (a positive control inhibitor) served as a positive control well, after incubation for 5 min at room temperature, per well was added with 10 µL MAGL substrate, and […] were vibrated for 10 s and placed for 10 min at room temperature, then an absorbance was detected at 410 nm. […] Graphad Prism 5.0 was taken to calculate IC50 curves fitting each inhibitor.

[5] = Tissue distribution test in mice; format: in vivo; parameters: content in the brain (tissue distribution): unit not given here; settings: 16 mg/kg subcutaneous injection

| IC50 [4] [nM] | content in the brain, ranking of the test substances [5] | content in the brain (tissue distribution) ([5]; 1.0 h) | content in the brain (tissue distribution) ([5]; 2.0 h) | content in the brain (tissue distribution) ([5]; 5.0 h) | SMILES | Accumulated immobility time [1] [S] | accumulated immobility time of mice forced swimming test, in words ([2]; 5 mg/kg intragastric 10 d, P<0.05) | Accumulated immobility time [2] [S] | effect on reserpine-induced depression (conclusion) ([3]; 4, 8 and 16 mg/kg sc 6 d) | Eyelid closure ([3]; high dose 16 mg/kg sc 6 d) | Eyelid closure ([3]; low dose 4 mg/kg sc 6 d) | Eyelid closure ([3]; middle dose 8 mg/kg sc 6 d) |
| --- | --- | --- | --- | --- | --- | --- | --- | --- | --- | --- | --- | --- |
| – | – | – | – | – | CNCCC(Oc1ccc(C(F)(F)F)cc1)c1ccccc1 (stereo not drawn) [Fluoxetine hydrochloride capsule, Fluoxetine hydrochloride, reference compound] | 92.19±23.63 | obviously shorten | 92.64±29.17 | – | – | – | – |
| – | – | – | – | – | O=C(Nc1cccc(O)c1)C1CCN(C(=O)c2ccc(Cl)cc2)CC1 [MAGLZ-II-06] | 90.73±30.51 | – | 89.23±46.37 | – | – | – | – |
| – | – | – | – | – | COc1cccc(C(=O)N2CCC(C(=O)Nc3ccc(Cl)cc3)CC2)c1 [MAGLZ-II-07] | 89.66±31.52 | – | 91.31±41.85 | – | – | – | – |
| 15 | ranking the second | 2.9 | 9.4 | 4.8 | O=C(Nc1cccc(Cl)c1)C1CCN(C(=O)c2ccc3ccccc3c2)CC1 [MAGLZ-II-17] | 89.87±29.68 | – | 79.38±41.67 | may enhance the effect | 0.25±0.66 | 2.25±0.66 | 1±1.00 |

From patent US20230090255A1, “MAGL INHIBITOR, PREPARATION METHOD THEREFOR AND USE THEREOF” (LUNAN PHARMACEUTICAL GROUP CORPORATION, priority 2019, published 2023)
